In ChEMBL document CHEMBL1144210, “Synthesis of all-trans anandamide: a substrate for fatty acid amide hydrolase with dual effects on rabbit platelet activation” (Bioorg Med Chem, 2008):
Activity calls are given as the source filed them. No cut-off for these calls is given here.

Tests used:
[1] = test system: Platelet; assay: Induction of platelet aggregation in New Zealand white rabbit ear vein plasma assessed as LDH activity at 0.36 mM; format: functional, cell-based; conditions: Oryctolagus cuniculus
[2] = test system: Platelet; assay: Inhibition of PAF-induced platelet aggregation in New Zealand white rabbit ear vein plasma; format: functional, cell-based; conditions: Oryctolagus cuniculus
[3] = test system: Platelet; assay: Induction of platelet aggregation in New Zealand white rabbit ear vein plasma in presence of PMSF; format: functional, Oryctolagus cuniculus
[4] = test system: Platelet; assay: Induction of in New Zealand white rabbit ear vein plasma in presence of URB597; format: functional, cell-based; conditions: Oryctolagus cuniculus
[5] = species on record: Oryctolagus cuniculus; assay: Inhibition of FAAH in New Zealand white rabbit ear vein platelets assessed as [3H]anandamide hydrolysis at 1.5 uM
[6] = test system: Platelet; assay: Induction of platelet aggregation in New Zealand white rabbit ear vein plasma at 100 uM to 1000 uM; format: functional, cell-based; conditions: Oryctolagus cuniculus
[7] = test system: Platelet; assay: Induction of platelet aggregation in New Zealand white rabbit ear vein plasma at 18 uM to 70 uM; format: functional, cell-based; conditions: Oryctolagus cuniculus
[8] = test system: Platelet; assay: Induction of platelet aggregation in New Zealand white rabbit ear vein plasma in presence of indomethacin; format: functional, cell-based; conditions: Oryctolagus cuniculus
[9] = test system: Platelet; assay: Induction of platelet aggregation in New Zealand white rabbit ear vein plasma in presence of aspirin; format: functional, cell-based; conditions: Oryctolagus cuniculus
[10] = species on record: Oryctolagus cuniculus; assay: Inhibition of FAAH in New Zealand white rabbit ear vein platelet assessed as [3H]anandamide hydrolysis at 7.5 uM

| Structure (SMILES) | Activity [1] | IC50 [2] [µM] | inhibition (INH) [3] [%] | Activity [4] | Activity [5] | Activity [6] | Activity [7] | Activity [8] | Activity [9] | Activity [10] |
| --- | --- | --- | --- | --- | --- | --- | --- | --- | --- | --- |
| CCCCC/C=C/C/C=C/C/C=C/C/C=C/CCCC(=O)NCCO | Active | 4.7 | 20 | inactive | Active | Dose-dependent effect | Dose-dependent effect | Active | Active | Active |
| CCCCC/C=C\C/C=C\C/C=C\C/C=C\CCCC(=O)NCCO | Dose-dependent effect |  |  |  | Active |  |  |  |  | Active |
